Assay results published in article PMC9718561, “Multi-functional chitosan copolymer modified nanocrystals as oral andrographolide delivery systems for enhanced bioavailability and anti-inflammatory efficacy” (Drug Delivery, 2022).
In brackets after ≈: the same amount, converted by molar mass. Where two headings read alike, the source gives them in different places.

Columns and labels:
[1] = Oil-water partition coefficient (Log P); type: physicochemical
Description: Combining the saturated solubility and log P of each group (shown in Table S1, it could be seen that the greater the saturated solubility is, the greater the log P value is.

[2] = tested on: ear swelling ICR mice model; experiment: Arachidonic acid ear swelling model, ear swelling rate; type: in vivo; conditions: indomethacin 10 mg/kg po; ADR injection 10 mg/kg iv; ADR 100 mg/kg po; S-C-TANs L 25, M 50, H 100 mg/kg po
Procedure: To explore whether the enhancing on bioavailability could result in enhanced therapeutic effect, we studied the anti-inflammatory efficacy of nanocrystal. The ear swelling ICR mice model was established by using arachidonic acid and the anti-inflammatory efficacy was evaluated by employing ear swelling rate of ICR mice serum levels of TNF-α, IL-6 and IL-1β, as pharmacodynamic index. In this study, fifty-six ICR mice were randomly divided into 8 groups, named control group (normal animal), model group (without drug), indomethacin group (positive drug, 10 mg/kg, po), ADR injection group (10 mg/kg, iv), ADR group (100 mg/kg, po), L-S-C-TANs group (low dose of S-C-TANs, 25 mg/kg, po), M-S-C-TANs group (middle dose of S-C-TANs, 50 mg/kg, po) and H-S-C-TANs group (high dose of S-C-TANs, 100 mg/kg, po). […] Cellular inflammatory factors, like TNF-α, IL-1β, and IL-6, were measured by Elisa Kit.
To explore whether the enhancing on bioavailability could result in enhanced therapeutic effect, we studied the anti-inflammatory efficacy of nanocrystal. The ear swelling ICR mice model was established by using arachidonic acid and the anti-inflammatory efficacy was evaluated by employing ear swelling rate of ICR mice serum levels of TNF-α, IL-6 and IL-1β, as pharmacodynamic index. […]

[3] = Pharmacokinetic study after gavage; type: in vivo; conditions: SD rats, 50 mg/kg by gavage
Procedure: We explored oral absorption enhancing ability of andrographolide nanocrystals by operating pharmacokinetic studies on SD rat. In brief, twenty-five SD rats were randomly divided into 5 groups, and administrated ADR-water (dispersed ADR in water), ANs, SANs, TANs and S-C-TANs at 50 mg/kg by gavage (Chen et al., [2014]). After administrated for 0.083, 0.25, 0.5, 0.75, 1, 2, 4, 6, 8, 12 and 24 h, about 0.3 mL blood sample was collected by retro-orbital puncture. The plasma was centrifuged at 4,000 r/min for 10 min at 4 °C and stored at −20 °C. The andrographolide concentrations in plasma samples were detected after treatments as following: 50 μL plasma samples, 25 μL luteolin solution (internal standard 10.11 μg/mL) and 200 μL methanol solution were mixed by vortexing for 5 min. The mixed solution was subsequently centrifuged at 12,000 rpm for 10 min and the supernatant was collected and dried at room temperature under a stream of nitrogen. The residue was reconstituted with 50 μL methanol and mixed by vortexing for 3 min. after centrifuging at 12,000 rpm for 10 min, the supernatant was injected into the HPLC system for analysis. The ADR concentration in plasma samples was detected by HPLC following the conditions shown in supplementary materials, and pharmacokinetic parameters were calculated using the DAS 3.3.0 pharmacokinetics program (developed by the Clinical Trial Center of Shanghai University of Traditional Chinese Medicine, Shanghai, China).
Andrographolide was analyzed at 225 nm using HPLC linked to a Ultimate^Ⓡ XB-C18 (4.6 mm ×250 mm, 5μm) column. The mobile phase, consisting of methanol and 0.2% phosphoric acid (46:54, v/v), was pumped at 1 mL/min. The column temperature was 35℃.

[4] = Saturated solubility study (shaking 24 h, HPLC); type: physicochemical; conditions: read-out: Saturation solubility
Procedure: Briefly, excess formulation powders were added into 5 mL buffers, and shaked at 37 °C for 24 h, then the undissolved drug was removed by centrifuging at 13, 000 rpm for 10 min and filtering with 0.22 μm microporous membrane. The drug concentration in the filtrate was determined by HPLC. The freshly prepared ANs, SANs, TANs and S-C-TANs were directly shaking for 24 h at 37 °C, and treated as that of andrographolide, thereafter. ADR was analyzed at 225 nm and at 35 °C using HPLC linked to Ultimate^Ⓡ XB-C18 (4.6 mm × 250 mm, 5 μm) column. The mobile phase which consisted of methanol and water (60:40, v/v) was pumped at 1 mL/min. The HPLC analysis met the methodological requirements by validating.

MDCK cells = experiment: Cytotoxicity of nanocrystals; type: cell-based; conditions: drug concentration above 100 μg/mL
[5] = Real-time distribution in the gastrointestinal tract (fluorescent labelling, live imaging); type: in vivo; conditions: SD rats, oral
Procedure: We performed real-time distribution study to explore whether the functional materials have played their full enhancing ability in oral absorption. We used acridine orange to label SDS, fluorescein isothiocyanate isomer I to label TPGS, CS, SDS-TPGS and SDS-CS-TPGS, and rhodamine B to label ADR, respectively. […] The SDS-CS-TPGS + ADR group was administered with SDS-CS-TPGS and ADR at the same time. The animals were killed by cervical dislocation at the pre-set time points of 0.5 h, 1 h, 2 h and 3 h. Then the gastrointestinal tract was removed in time and put it into a small animal live imaging system (Lumina XR, PerkinElmer, America) for photographic observation.
The distribution of gastrointestinal segments in each group of animals at each time period was observed by in live imaging system (Figure 5A). […] In order to further understand the distribution of various materials and ADR in the gastrointestinal tract, we divided the gastrointestinal tract of SD rats into ten parts such as stomach, small intestine which divided into 8 sections on average and colon, as shown in Figure 5(B). […] For example, when SDS-CS-TPGS were taken orally with ADR, the time of 50% SDS-CS-TPGS passing part 4, part 5 and part 6 of small intestine was 0.67 ± 0.01 h, 0.98 ± 0.06 h and 1.04 ± 0.13 h, respectively, which were not much different from that of ADR, as the passing time of ADR in part 4, part 5 and part 6 was 0.65 ± 0.04 h, 1.02 ± 0.01 h and 1.03 ± 0.01 h, respectively. However, these times of other materials and ADR were different, indicating the materials and ADR could not reach the same site of gastrointestinal tract at the same time, which may limit the absorption enhancing ability of functional materials. Combining the results described above, we can conclude that materials in physical mixture may separate in intestinal, and synthesized copolymer could reduce the separation and has better ability to […] the absorption site of drug at the same time.
The passing times of 50% ADR and polymer materials passed through the fourth (T4(50)), fifth (T5(50)) and sixth (T6(50)) segments of small intestine of SD rats were shown in Table S2, and we can find the distribution of ADR and copolymer (S-C-T) were similar.

[6] = SDS-CS-TPGS and ADR administered at the same time

**Q.** Which logP ([1]; Water, 25℃) does the source give for `C=C1CC[C@@H]2[C@](C)(CO)[C@H](O)CC[C@@]2(C)[C@@H]1C/C=C1/C(=O)OC[C@H]1O` [ADR, andrographolide] here?
**A.** The logP was 1.78 ± 0.02.

**Q.** What about the logP ([1]; Water, 37℃) of the same compound?
**A.** Its logP is 1.76 ± 0.01.

**Q.** And the logP ([1]; pH 1.2, pH1.2, 25℃)?
**A.** Its logP is 1.85 ± 0.02.

**Q.** What about the logP ([1]; pH 1.2, pH1.2, 37℃) of the same compound?
**A.** The logP was 1.84 ± 0.02.

**Q.** What about the logP ([1]; pH 4, pH4.0, 25℃) of the same compound?
**A.** The logP was 1.85 ± 0.02.

**Q.** What about the logP ([1]; pH 4, pH4.0, 37℃) of the same compound?
**A.** The logP was 1.87 ± 0.02.

**Q.** What about the logP ([1]; pH 6.8, pH6.8, 25℃) of the same compound?
**A.** The logP was 1.88 ± 0.02.

**Q.** What about the logP ([1]; pH 6.8, pH6.8, 37℃) of the same compound?
**A.** The logP was 1.94 ± 0.02.

**Q.** What about the “anti-ear swelling efficacy, order of all groups” value [2] of the same compound?
**A.** The value was “ADR injection group > H-S-C-TANs group > positive drug group > M-S-C-TANs group > ADR group ≈ L-S-C-TANs group”.

**Q.** What about the “Fr (relative bioavailability)” value ([3]; compared with ADR-Water) of the same compound?
**A.** The value was 100%.

**Q.** What about the bioavailability ([3]; rat, plasma, po, read-out: Fa (absolute bioavailability)) of the same compound?
**A.** Its bioavailability is 1.83%.

**Q.** What about the AUC(0-inf) ([3]; rat, po, plasma) of the same compound?
**A.** The AUC(0-inf) was 1290 ng·h/mL.

**Q.** And the AUC(0-t) ([3]; rat, po, plasma)?
**A.** Its AUC(0-t) is 1290 ± 218 ng·h/mL.

**Q.** And the Cmax ([3]; rat, po, plasma)?
**A.** The Cmax was 229 ± 82 ng/mL.

**Q.** What about the Tmax ([3]; rat, po, plasma) of the same compound?
**A.** Its Tmax is 0.717 ± 0.415 h.

**Q.** What about the half-life ([3]; rat, po, plasma) of the same compound?
**A.** Its half-life is 2.81 ± 0.232 h.

**Q.** What about the CL/F ([3]; rat, po, plasma, read-out: CLz/F (converted)) of the same compound?
**A.** The CL/F was 661 mL/min/kg.

**Q.** And the MRT last ([3]; rat, po, plasma, read-out: MRT0-t)?
**A.** The MRT last was 5.66 ± 1.26 h.

**Q.** What about the MRT inf ([3]; rat, po, plasma, read-out: MRT0-∞) of the same compound?
**A.** Its MRT inf is 5.75 ± 1.26 h.

**Q.** What about the Vd/F ([3]; rat, po, plasma, read-out: Vz/F) of the same compound?
**A.** The Vd/F was 161 ± 31.4 L/kg.

**Q.** And the solubility at 24 h ([4]; citrate - disodium hydrogen phosphate buffer, 37 °C, pH 4, aqueous buffer, thermodynamic from solid, pH4.0 (C-DHPB))?
**A.** Its solubility at 24 h is 37.68 ± 0.24 µg/mL (≈ 108 µM).

**Q.** And the solubility at 24 h ([4]; hydrochloric acid aqueous solution, 37 °C, pH 1.2, simulated gastric fluid, thermodynamic from solid, pH1.2 (HCl))?
**A.** Its solubility at 24 h is 38.2 ± 0.95 µg/mL (≈ 109 µM).

**Q.** And the solubility at 24 h ([4]; phosphate buffered saline, 37 °C, pH 6.8, aqueous buffer, thermodynamic from solid, pH6.8 (PBS))?
**A.** Its solubility at 24 h is 32.5 ± 0.42 µg/mL (≈ 92.8 µM).

**Q.** What about the solubility at 24 h ([4]; purified water, 37℃) of the same compound?
**A.** The solubility at 24 h was 40.8 ± 0.64 µg/mL (≈ 116 µM).

**Q.** And the cytotoxicity (MDCK cells)?
**A.** Its cytotoxicity is “toxicity of ADR emerged”.

**Q.** And the “T4(50), time of 50% passing the fourth segment of small intestine” value [5, 6]?
**A.** The value was 0.65 ± 0.04 h.

**Q.** What about the “T5(50), time of 50% passing the fifth segment of small intestine” value [5, 6] of the same compound?
**A.** The value was 1.02 ± 0.01 h.

**Q.** What about the “T6(50), time of 50% passing the sixth segment of small intestine” value [5, 6] of the same compound?
**A.** The value was 1.03 ± 0.01 h.

**Q.** What about the “T4(50), time of 50% passing the fourth segment of small intestine” value ([5]; given alone) of the same compound?
**A.** The value was 0.65 ± 0.02 h.

**Q.** What about the “T5(50), time of 50% passing the fifth segment of small intestine” value ([5]; given alone) of the same compound?
**A.** Its value is 1.16 ± 0.10 h.

**Q.** What about the “T6(50), time of 50% passing the sixth segment of small intestine” value ([5]; given alone) of the same compound?
**A.** Its value is 2.08 ± 0.05 h.

**Q.** Which results are given for `CCCCCCCCCCCCOS(=O)(=O)[O-].[Na+]` [SDS, Sodium dodecyl sulfate]?
**A.** T4(50), time of 50% passing the fourth segment of small intestine ([5]; given alone): 0.89 ± 0.03 h; T5(50), time of 50% passing the fifth segment of small intestine ([5]; given alone): 1.52 ± 0.12 h; T6(50), time of 50% passing the sixth segment of small intestine ([5]; given alone): 2.40 ± 0.02 h

**Q.** For `COc1ccc2c(c1)c(CC(=O)O)c(C)n2C(=O)c1ccc(Cl)cc1` [indomethacin, Indomethacin], which “anti-ear swelling efficacy, order of all groups” value [2] is on record?
**A.** The value was “ADR injection group > H-S-C-TANs group > positive drug group > M-S-C-TANs group > ADR group ≈ L-S-C-TANs group”.
